Structures are written as SMILES.

Our source for the IC50 values is patent US11939318B2, “LPA receptor antagonists and uses thereof” (Gilead Sciences, Inc., priority 2021, dated 2024).

In this experiment the target is T1, human LPAR1 (Homo sapiens, UniProt Q92633).
T1 construct: host or cells: CHO-K1
T1 sequence (Q92633 whole entry): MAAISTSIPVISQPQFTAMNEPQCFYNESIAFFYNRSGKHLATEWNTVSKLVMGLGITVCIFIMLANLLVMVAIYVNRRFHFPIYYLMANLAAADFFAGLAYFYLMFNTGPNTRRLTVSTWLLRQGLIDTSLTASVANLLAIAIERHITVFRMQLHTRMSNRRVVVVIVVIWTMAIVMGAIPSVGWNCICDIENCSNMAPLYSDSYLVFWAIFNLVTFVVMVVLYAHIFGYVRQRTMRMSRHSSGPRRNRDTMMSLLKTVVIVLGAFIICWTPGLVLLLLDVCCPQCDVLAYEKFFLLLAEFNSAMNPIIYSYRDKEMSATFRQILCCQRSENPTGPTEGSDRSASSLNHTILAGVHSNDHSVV
As to the kind of experiment: LPAR1 intracellular calcium mobilization assay (antagonist mode, CHO-K1 EDG2 cells, FLIPR). The class given is cell-based. The conditions noted are these: antagonist activity; CHO-K1 EDG2 cells expressing human LPAR1; 60 min pre-incubation at 37° C., then LPA 18:2 at EC80 concentration (100 nM); test compound 0.5 nM to 10 μM; read-out: LPAR1 (EC50; nM). On the procedure: In vitro LPAR1 activity was measured in an intracellular calcium mobilization assay.
CHO-K1 EDG2 cells (DiscoverX cat #93-0644C2) expressing human LPAR1 (NM_001401.3) were seeded in a total volume of 25 μL of Dulbecco's Modification of Eagle's Medium (DMEM) with 10% Fetal Bovine Serum, 1× PenStrepGlutamine, 300 μg/ml Hygromycin, and 800 μg/ml G418 into 384-well tissue culture plate (Grenier #781091) at 15,000 cells/well and incubated at 37° C. overnight. Prior to testing, 25 μL Calcium Loading Dye Component A (FLIPR Calcium 6 Assay Kit Molecular Device #R8190) and 2.5 mM Probenecid (Invitrogen #P36400, prepared fresh) in Hank's Balanced Salt Solution (Corning #21-023-CV), 20 mM HEPES (Corning #25-060-CI), 0.1% Bovine Serum Albumin (Sigma-Aldrich #A7906-500G) was add to the cells for 60 minutes at 37° C.
Agonist dose curves of LPA 18:2 (Avanti Polar Lipids cat #857138, 0.5 nM to 10 μM) were recorded to determine the LPA 18:2 EC80 for subsequent antagonist assays. For agonist dose curves, cells were removed from the incubator 2 hours after dye loading and transferred to the FLIPR Tetra instrument (Molecular Devices, San Jose, CA). Calcium mobilization was monitored for […] and 10 μL 6× LPA in HBSS/20 mM Hepes/0.1% bovine serum albumin (BSA) was added to the cells 5 seconds into the assay.
To determine the LPAR1 antagonist activity of test compounds, cells were pre-incubated with test compound at a dose range of 0.5 nM to 10 μM, followed by LPA at EC80 concentration (100 nM). After dye loading, cells were removed from the incubator and 0.3 μL of 200X antagonist was added. Cells were incubated for 60 minutes at 37° C. Antagonist activity was measured on a FLIPR Tetra. Calcium mobilization was monitored for 3.5 minutes and 10 μL 6X EC80 LPA in HBSS, 20 mM HEPES, and 0.1% BSA was added to the cells 5 seconds into the assay. Signal amplitude (Maximum minus minimum) values were plotted against log10 of antagonist concentration using Dose Response Tool (Gilead Sciences Inc.) to determine EC50.
The compound numbers correspond to the compound numbers in Examples 1 to13.
(In general: Calcium flux is commonly read through the fluorescence of an indicator in the cells.)
In the case of `C[C@@H](OC(=O)Nc1c(-c2ccc(NC(=O)C(F)(F)F)cn2)nnn1C)c1cccc(F)c1` [Compound 1, (R)-1-(3-fluorophenyl)ethyl (1-methyl-4-(5-(2,2,2-trifluoroacetamido)pyridin-2-yl)-1H-1,2,3-triazol-5-yl)carbamate], the IC50 came to 345 nM.

For the molecule `C[C@@H](OC(=O)Nc1c(-c2ccc(NC(=O)C34CC(OS(C)(=O)=O)(C3)C4)cn2)nnn1C)c1cccnc1Cl` [Compound 13, (R)-3-((6-(5-(((1-(2-chloropyridin-3-yl)ethoxy)carbonyl)amino)-1-methyl-1H-1,2,3-triazol-4-yl)pyridin-3-yl)carbamoyl)bicyclo[1.1.1]pentan-1-yl methanesulfonate], the IC50 was determined as 152 nM.

Regarding `C[C@@H](OC(=O)Nc1c(-c2ccc(NC(=O)C3(O)CC3)cn2)nnn1C)c1cccnc1Cl` [Compound 3, (R)-1-(2-chloropyridin-3-yl)ethyl (4-(5-(1-hydroxycyclopropane-1-carboxamido)pyridin-2-yl)-1-methyl-1H-1,2,3-triazol-5-yl)carbamate], the IC50 was determined as 2770 nM.

As to `Cc1nc(-c2nnn(C)c2NC(=O)O[C@H](C)c2cc(F)cnc2F)ccc1NC(=O)C1(CN)CC(F)(F)C1` [Compound 9, (R)-1-(2,5-difluoropyridin-3-yl)ethyl (4-(5-(1-(aminomethyl)-3,3-difluorocyclobutane-1-carboxamido)-6-methylpyridin-2-yl)-1-methyl-1H-1,2,3-triazol-5-yl)carbamate], the IC50 came to 34 nM.

For `C[C@@H](OC(=O)Nc1c(-c2ccc(NC(=O)C34CC(c5ccccc5)(C3)C4)cn2)nnn1C)c1cc(F)cnc1F` [Compound 10, (R)-1-(2,5-difluoropyridin-3-yl)ethyl (1-methyl-4-(5-(3-phenylbicyclo[1.1.1]pentane-1-carboxamido)pvidin-2-yl)-1H-1,2,3-triazol-5-yl)carbamate], the IC50 worked out at 13 nM.

In the case of `C[C@@H](OC(=O)Nc1c(-c2ccc(NC(=O)C3(C#N)CC3)c(Cl)n2)nnn1C)c1cc(F)cnc1F` [Compound 5, (R)-1-(2,5-difluoropyridin-3-yl)ethyl (4-(6-chloro-5-(1-cyanocyclopropane-1-carboxamido)pyridin-2-yl)-1-methyl-1H-1,2,3-triazol-5-yl)carbamate], the IC50 came to 186 nM.

As for `CC(=O)Nc1ccc(-c2nnn(C)c2NC(=O)O[C@H](CF)c2cccc(F)c2)nc1C` [Compound 2, (S)-2-fluoro-1-(3-fluorophenyl)ethyl (4-(5-acetamido-6-methylpyridin-2-yl)-1-methyl-1H-1,2,3-triazol-5-yl)carbamate], the IC50 turned out to be 37000 nM.

As for `Cc1nc(-c2nnn(C)c2NC(=O)O[C@H](C)c2cc(F)cnc2F)ccc1NC(=O)c1cnc(C2CC2)o1` [Compound 7, (R)-1-(2,5-difluoropyridin-3-yl)ethyl (4-(5-(2-cyclopropyloxazole-5-carboxamido)-6-methylpyridin-2-yl)-1-methyl-1H-1,2,3-triazol-5-yl)carbamate], the IC50 amounted to 261 nM.

For the molecule `CC(=O)Nc1ccc(-c2nnn(C)c2NC(=O)O[C@H](C)c2cc(F)cnc2F)nc1` [Compound 12, (R)-1-(2,5-difluoropyridin-3-yl)ethyl (4-(5-acetamidopyridin-2-yl)-1-methyl-1H-1,2,3-triazol-5-yl)carbamate], the IC50 stood at 2050 nM.

Regarding `C[C@@H](OC(=O)Nc1c(-c2ccc(NC(=O)c3cnc(-c4cccc(Cl)c4)nc3)cn2)nnn1C)c1cc(F)cnc1F` [Compound 8, (R)-1-(2,5-difluoropyridin-3-yl)ethyl (4-(5-(2-(3-chlorophenyl)pyrimidine-5-carboxamido)pyridin-2-yl)-1-methyl-1H-1,2,3-triazol-5-yl)carbamate], the IC50 was 22 nM.

For the molecule `COC1(C(=O)Nc2ccc(-c3nnn(C)c3NC(=O)O[C@H](C)c3cccnc3Cl)nc2)CC1` [Compound 4, (R)-1-(2-chloropyridin-3-yl)ethyl (4-(5-(1-methoxycyclopropane-1-carboxamido)pyridin-2-yl)-1-methyl-1H-1,2,3-triazol-5-yl)carbamate], the IC50 came out at 1260 nM.

For `C[C@@H](OC(=O)Nc1c(-c2ccc(NC(=O)c3ccc(C4CC4)nc3)cn2)nnn1C)c1cc(F)cnc1F` [Compound 6, (R)-1-(2,5-difluoropyridin-3-yl)ethyl (4-(5-(6-cyclopropylnicotinamido)pyridin-2-yl)-1-methyl-1H-1,2,3-triazol-5-yl)carbamate], the IC50 was determined as 176 nM.

With `C[C@@H](OC(=O)Nc1c(-c2ccc(NC(=O)c3ccc(C45CC(C4)C5)cc3)cn2)nnn1C)c1cc(F)cnc1F` [Compound 11, (R)-1-(2,5-difluoropyridin-3-yl)ethyl (4-(5-(4-(bicyclo[1.1.1]pentan-1-yl)benzamido)pyridin-2-14)-1-methyl-1H-1,2,3-triazol-5-yl)carbamate], the IC50 worked out at 365 nM.
